# Legend:
# Test in all cases: Radioisotope-based methyltransferase assay (selectivity)
# MLL2 [1] = settings: MLL2, 1 μM SAM
# PRMT1 = PRMT1 (Homo sapiens, UniProt Q99873)
# MLL2 [2] = target: MLL2 (Homo sapiens, UniProt O14686); settings: MLL2, 1 μM SAM
# Sequence of MLL2 (Homo sapiens, UniProt O14686) (O14686 5319-5537): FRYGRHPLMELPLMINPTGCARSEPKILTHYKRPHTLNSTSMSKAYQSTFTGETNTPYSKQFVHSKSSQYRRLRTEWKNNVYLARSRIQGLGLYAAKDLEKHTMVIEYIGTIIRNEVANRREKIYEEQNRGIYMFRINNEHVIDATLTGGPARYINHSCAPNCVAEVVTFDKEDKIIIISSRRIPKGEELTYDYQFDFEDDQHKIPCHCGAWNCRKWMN
# Sequence of MLL2 (Homo sapiens, UniProt O14686) (Q9C005 whole entry, further chain): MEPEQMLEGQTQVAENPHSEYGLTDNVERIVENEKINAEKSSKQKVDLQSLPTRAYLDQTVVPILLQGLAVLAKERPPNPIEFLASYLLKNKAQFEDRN
# Sequence of MLL2 (Homo sapiens, UniProt O14686) (Q15291 whole entry, further chain): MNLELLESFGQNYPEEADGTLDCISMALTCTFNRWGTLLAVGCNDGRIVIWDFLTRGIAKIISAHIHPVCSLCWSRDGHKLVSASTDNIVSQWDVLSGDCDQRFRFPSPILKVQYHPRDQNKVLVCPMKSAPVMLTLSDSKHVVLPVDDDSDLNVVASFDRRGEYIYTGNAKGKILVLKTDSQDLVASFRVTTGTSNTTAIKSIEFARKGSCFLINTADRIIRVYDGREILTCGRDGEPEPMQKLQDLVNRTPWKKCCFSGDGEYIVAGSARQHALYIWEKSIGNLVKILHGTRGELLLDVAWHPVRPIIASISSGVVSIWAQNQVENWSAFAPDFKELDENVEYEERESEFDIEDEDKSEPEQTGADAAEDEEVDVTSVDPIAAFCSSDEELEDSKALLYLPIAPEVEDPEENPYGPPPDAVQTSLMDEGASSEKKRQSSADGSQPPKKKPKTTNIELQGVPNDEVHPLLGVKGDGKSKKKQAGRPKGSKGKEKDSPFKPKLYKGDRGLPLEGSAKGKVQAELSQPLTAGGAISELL
# Sequence of MLL2 (Homo sapiens, UniProt O14686) (Q9UBL3 whole entry, further chain): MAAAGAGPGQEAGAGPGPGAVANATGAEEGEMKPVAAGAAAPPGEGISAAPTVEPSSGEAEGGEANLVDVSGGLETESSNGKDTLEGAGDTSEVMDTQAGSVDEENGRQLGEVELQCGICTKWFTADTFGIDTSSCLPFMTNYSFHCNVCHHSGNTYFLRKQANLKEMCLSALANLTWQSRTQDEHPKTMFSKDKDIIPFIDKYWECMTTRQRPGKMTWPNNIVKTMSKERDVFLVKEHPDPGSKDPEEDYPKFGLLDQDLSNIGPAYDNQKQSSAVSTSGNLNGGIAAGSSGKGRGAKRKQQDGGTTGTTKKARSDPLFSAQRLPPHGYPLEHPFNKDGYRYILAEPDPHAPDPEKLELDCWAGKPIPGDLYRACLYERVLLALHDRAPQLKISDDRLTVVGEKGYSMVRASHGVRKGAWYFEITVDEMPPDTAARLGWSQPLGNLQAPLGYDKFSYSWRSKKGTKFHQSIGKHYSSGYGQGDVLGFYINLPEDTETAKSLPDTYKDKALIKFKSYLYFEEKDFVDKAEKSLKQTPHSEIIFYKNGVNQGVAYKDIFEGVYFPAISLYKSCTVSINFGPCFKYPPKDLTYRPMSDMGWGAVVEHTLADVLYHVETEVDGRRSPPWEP
# Sequence of PRMT1 (Q99873 whole entry): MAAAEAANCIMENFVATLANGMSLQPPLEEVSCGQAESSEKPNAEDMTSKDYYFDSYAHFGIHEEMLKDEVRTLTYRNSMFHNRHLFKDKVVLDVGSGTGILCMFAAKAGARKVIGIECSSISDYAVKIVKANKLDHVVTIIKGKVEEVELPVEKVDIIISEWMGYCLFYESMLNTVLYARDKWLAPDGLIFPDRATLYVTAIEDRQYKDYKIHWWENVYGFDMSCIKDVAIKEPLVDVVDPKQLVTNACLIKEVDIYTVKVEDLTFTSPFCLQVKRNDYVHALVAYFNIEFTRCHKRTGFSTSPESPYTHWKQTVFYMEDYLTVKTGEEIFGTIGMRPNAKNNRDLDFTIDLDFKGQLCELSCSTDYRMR
# Sequence of MLL2 (O14686 5319-5537): as the sequence (O14686 5319-5537) above
# Sequence of MLL2 (Q9C005 whole entry, further chain): as the sequence (Q9C005 whole entry, further chain) above
# Sequence of MLL2 (Q15291 whole entry, further chain): as the sequence (Q15291 whole entry, further chain) above
# Sequence of MLL2 (Q9UBL3 whole entry, further chain): as the sequence (Q9UBL3 whole entry, further chain) above
SMILES,IC50 (MLL2 [1]),IC50 (PRMT1),IC50 (MLL2 [2])
Cc1c(C(=O)NC(CCC2CC2)C(=O)Nc2ccc(C#N)cc2)[nH]c2c1C(=O)CC(C)(C)C2 (stereo not drawn) [RK-701],> 100 µM,> 100 µM,–
"Nc1ncnc2c1ncn2[C@@H]1O[C@H](CSCC[C@H](N)C(=O)O)[C@@H](O)[C@H]1O [SAH, S-(5'-Adenosyl)-L-homocysteine, reference compound]",–,–,11.6 µM
